One assay concerns the target T1, VfmE (Dickeya dadantii, UniProt E0SMH0).
T1 construct: full length, N-terminal 6xHis-MBP fusion (pMAL-c6T) kept, expressed in E. coli NEBExpress, soluble lysate coated on plate
Description: ELISA with biotinylated c-di-GMP, competed by unlabelled c-di-GMP. The assay is classed as binding. As to conditions: labelled compound (25 nM biotinylated c-di-GMP, Biolog); competition with 10 uL of 250 nM unlabelled c-di-GMP; PBS pH 7.4, room temperature; plate coated with lysate protein.

For a further assay, the target named is T2, YcgR from D. dadantii (Dickeya dadantii, UniProt E0SAQ7).
T2 construct: 6xHis-tagged, recombinant, soluble lysate coated on plate
The assay is described as above. The assay is classed as binding. The following applies: labelled compound (25 nM biotinylated c-di-GMP, Biolog); competition with 10 uL of 250 nM unlabelled c-di-GMP; PBS pH 7.4, room temperature; plate coated with lysate protein; positive control protein.

Each structure is given as a SMILES string.

T1 sequence (E0SMH0 entry or part of it): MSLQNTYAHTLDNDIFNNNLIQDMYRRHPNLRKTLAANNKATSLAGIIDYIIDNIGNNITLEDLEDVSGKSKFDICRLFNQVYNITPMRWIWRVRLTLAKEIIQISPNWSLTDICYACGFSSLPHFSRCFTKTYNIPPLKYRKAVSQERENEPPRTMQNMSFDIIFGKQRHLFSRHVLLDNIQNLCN
T2 sequence (E0SAQ7 entry or part of it): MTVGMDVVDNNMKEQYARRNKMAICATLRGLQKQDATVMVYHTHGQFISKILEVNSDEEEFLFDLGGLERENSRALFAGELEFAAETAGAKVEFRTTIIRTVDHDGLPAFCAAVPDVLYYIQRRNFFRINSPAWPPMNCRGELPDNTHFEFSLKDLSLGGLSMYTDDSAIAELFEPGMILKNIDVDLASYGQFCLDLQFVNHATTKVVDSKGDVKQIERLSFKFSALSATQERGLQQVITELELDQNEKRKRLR

`Nc1nc2c(ncn2[C@@H]2O[C@@H]3COP(=O)(O)O[C@H]4[C@@H](O)[C@H](n5cnc6c(=O)[nH]c(N)nc65)O[C@@H]4COP(=O)(O)O[C@H]3[C@H]2O)c(=O)[nH]1` [c-di-GMP]: the “ELISA with biotinylated c-di-GMP, competed by unlabelled c-di-GMP” value is “VfmE binds c-di-GMP with specificity comparable to that of a known c-di-GMP effector, YcgR” at VfmE; “We observed a reduced absorbance in both VfmE- and YcgR-treated wells” at YcgR from D. dadantii.

The values are drawn from publication PMC9045272, “Quorum-Sensing Master Regulator VfmE Is a c-di-GMP Effector That Controls Pectate Lyase Production in the Phytopathogen Dickeya dadantii” (Microbiology Spectrum, 2022).
